# Measured values: patent publication US20220280594A1, “APPLICATION OF POLYPEPTIDE OR DERIVATIVE THEREOF” (CHENGDU HUITAI BIOMEDICINE CO., LTD., priority 2019, published 2022)
# Ends that are not written are not given here. PEG = not defined here
# How the values were obtained:
# [1] = system: human liver cancer cells (HepG2); assay: scratch assay, migration of HepG2 cells; type: cell-based; details: HepG2, 10 μM, 48 hours; control group 71.01 ± 6.63
# How it was run: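 HepG2 monolayers scratched, then cultured 48 h in 2% FBS medium with test polypeptides at 10 μM versus PBS control, triplicate wells. Migration rate (%) computed from original versus current scratch width in images.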
# [2] = system: human breast cancer cells (MDA-MB-231); assay: scratch assay, migration of MDA-MB-231 cells; type: cell-based; details: MDA-MB-231, 10 μM, 48 hours; control group 36.19 ± 5.15
# How it was run: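 MDA-MB-231 monolayers (1-2×10^5 cells/well) were scratched, then kept 48 h in medium with 2% FBS containing polypeptide at 10 μM, with a PBS control, in triplicate wells. Migration rate (%) was taken from scratch width: (original − current)/original ×100.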
# [3] = system: human lung cancer cells (A549) subcutaneous xenograft; assay: lung cancer subcutaneous xenograft animal model, intravenous injection; type: in vivo, mice (BALB/c-nu/nu); details: intravenous 60 mg/kg once every other day, 20 days; for Weight of tumor (g) (mean ± SD): control 2.53 ± 0.17; for Volume of tumor (mm^3) (mean ± SD): control 3373.26 ± 581.44
# How it was run: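 Female BALB/c-nu/nu mice (4-6 weeks) inoculated subcutaneously with ~2×10^6 A549 cells; grouped once tumours exceeded 100 mm^3. Peptides given intravenously at 60 mg/kg for 20 days versus model control. Tumour weight and volume measured at dissection; body weight recorded every other day.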
# [4] = system: human breast cancer cells (MDA-MB-453); assay: scratch assay, migration of MDA-MB-453 cells; type: cell-based; details: MDA-MB-453, 10 μM, 48 hours; control group 32.42 ± 2.04
# How it was run: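 Confluent MDA-MB-453 monolayers were scratched, then treated with peptide at 10 μM in 2% FBS medium for 48 h, with a PBS control and triplicate wells. Migration rate (%) was taken as (original − current scratch width)/original width ×100 from images.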
# [5] = system: human pancreatic cancer cells (PANC-1); assay: transwell migration assay, PANC-1 cells; type: cell-based; details: PANC-1 transwell migration, 10 μM, 24 hours; control group 360 ± 60
# How it was run: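 Serum-free PANC-1 cells placed in the upper transwell chamber with complete medium below; after 4-5 h, peptide added to the upper chamber at a final 10 μM. Migration ran 24 h at 37 °C; cells on the membrane underside were methanol-fixed, crystal violet-stained and counted by microscopy.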
# [6] = system: human colon cancer cells (HCT-116); assay: scratch assay, migration of HCT-116 cells; type: cell-based; details: HCT-116, 10 μM, 48 hours; control group 47.78 ± 6.07
# How it was run: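 Confluent HCT-116 monolayers were scratched, washed and cultured 48 h in 2% FBS medium with peptide at 10 μM versus PBS control, triplicate wells. Migration rate (%) = (original minus current scratch width)/original width × 100, from at least 3 images per well.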
# [7] = system: human non-small cell lung cancer cells (A549); assay: scratch assay, migration of A549 cells; type: cell-based; details: A549, 10 μM, 48 hours; control group 75.31 ± 8.19
# How it was run: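 Confluent A549 monolayers in 24-well plates were scratched, washed with PBS, then cultured 48 h in 2% FBS medium with peptide at 10 μM or PBS control, triplicate wells. Scratch width measured from images; migration rate (%) = (original − current width)/original width × 100.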
# [8] = system: human prostate cancer cells (22RV1); assay: scratch assay, migration of 22RV1 cells; type: cell-based; details: 22RV1, 10 μM, 48 hours; control group 25.41 ± 5.01
# How it was run: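 22RV1 monolayers (seeded 1-2×10^5 cells/well) were scratched, washed, then given 2% FBS medium with 10 μM polypeptide or PBS, triplicate wells, for 48 h. Migration rate (%) = (original − current scratch width)/original width ×100, from ≥3 images per well.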
# [9] = system: human breast cancer cells (MCF-7); assay: scratch assay, migration of MCF-7 cells; type: cell-based; details: MCF-7, 10 μM, 48 hours; control group 30.97 ± 1.79
# How it was run: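 MCF-7 monolayers scratched, then cultured 48 hours in 2% FBS medium with test peptide at 10 μM versus PBS control, triplicate wells. Migration rate (%) = (original − current scratch width)/original width × 100, measured from images.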
Substance,"Migration rate (%) (mean ± SD, P) [1]","Migration rate (%) (mean ± SD, P) [2]",Weight of tumor (g) (mean ± SD) [3],Volume of tumor (mm^3) (mean ± SD) [3],"Migration rate (%) (mean ± SD, P) [4]","Number of cells (mean ± SD, P), migrated cells [5]","Migration rate (%) (mean ± SD, P) [6]","Migration rate (%) (mean ± SD, P) [7]","Migration rate (%) (mean ± SD, P) [8]","Migration rate (%) (mean ± SD, P) [9]"
"N47: SEQ ID NO: 1 with N18R, deletion of positions 1-2, one amino acid added and PEG at the carboxyl terminal (VRFLAKENVTQDAEDRC-{PEG}; reading uncertain)","54.67 ± 7.02,* %","21.82 ± 4.11,* %",0.75 ± 0.39,1748.82 ± 508.08,"14.66 ± 2.51,*** %","135 ± 10,***","18.92 ± 2.11,** %","54.66 ± 4.73,* %","5.92 ± 2.53,** %","18.41 ± 2.35,* %"
"N54: SEQ ID NO: 1 with A7R, addition of two amino acids and PEG modification at the carboxyl terminal (YRVRFLRKENVTQDAEDNTC-{PEG}; reading uncertain)","46.62 ± 3.73,** %","13.37 ± 5.89,** %",0.89 ± 0.37,1381.65 ± 396.21,"3.19 ± 1.08,*** %","128 ± 19,***","26.50 ± 3.99,** %","54.66 ± 4.73,* %","12.94 ± 2.70,* %","16.52 ± 2.93,* %"
N19: SEQ ID NO: 1 with deletion of positions 1-5 and 15-18 and addition of two amino acids at the carboxyl terminal (LAKENVTQDRC),"12.10 ± 6.15,*** %","15.23 ± 3.54,* %",0.81 ± 0.19,1235.44 ± 432.58,"25.49 ± 2.69,* %","238 ± 27,*","9.80 ± 2.62,*** %","53.74 ± 5.46,* %","5.36 ± 1.6,** %","11.84 ± 3.95,** %"
N12: SEQ ID NO: 1 with deletion of position 18 and positions 1-2 (VRFLAKENVTQDAED),"48.01 ± 5.38,** %","15.41 ± 3.55,** %",0.85 ± 0.19,1275.34 ± 221.5,"6.32 ± 1.78,*** %","246 ± 14,*","8.14 ± 3.00,*** %","20.05 ± 8.79,** %","6.61 ± 2.83,** %","11.65 ± 3.32,** %"
N10: SEQ ID NO: 1 with deletion of positions 15-18 and 1-3 and PEG modification at the carboxyl terminal (RFLAKENVTQD-{PEG}; reading uncertain),"39.45 ± 5.00,** %","13.6 ± 4.62,** %",0.86 ± 0.17,1211.62 ± 670.09,"6.9 ± 1.65,*** %","254 ± 20,*","8.70 ± 2.39,*** %","26.86 ± 8.78,** %","13.39 ± 2.3,* %","9.55 ± 2.72,** %"
"N50: SEQ ID NO: 1 with N18R, addition of 2 amino acid at the carboxyl terminal, PEG modification at the amino terminal ({PEG}-YRVRFLAKENVTQDAEDRCT; reading uncertain)","16.03 ± 4.37,*** %","14.46 ± 5.73,** %",0.85 ± 0.27,1463.11 ± 472.43,"18.35 ± 3.91,** %","230 ± 11,**","17.04 ± 4.96,** %","57.74 ± 4.39,* %","6.20 ± 3.31,** %","6.83 ± 4.55,** %"
N29: SEQ ID NO: 1 with deletion of positions 1-5 and 15-18 and PEG modification at the amino terminal ({PEG}-LAKENVTQD; reading uncertain),"10.62 ± 8.97,*** %","18 ± 4.47,* %",1 ± 0.17,1365.48 ± 435.32,"13.73 ± 3.29,** %","178 ± 31,***","8.24 ± 2.32,*** %","20.55 ± 3.73,*** %","9.99 ± 3.89,* %","19.15 ± 3.04,* %"
"N43: SEQ ID NO: 1 with addition of one amino acid at the amino terminal, deletion of position 18, PEG at the carboxyl terminal (RYRVRFLAKENVTQDAED-{PEG}; reading uncertain)","26.54 ± 7.89,** %","12.19 ± 5.70,** %",0.85 ± 0.14,1218.7 ± 190.78,"10.38 ± 6.04,** %","157 ± 15,***","4.56 ± 1.52,*** %","57.74 ± 5.39,* %","6.57 ± 1.35,** %","7.83 ± 3.42,** %"
"N53: SEQ ID NO: 1 with A15R, one amino acid added at each terminal, PEG modification at the carboxyl terminal (FYRVRFLAKENVTQDREDNC-{PEG}; reading uncertain)","35.85 ± 4.32,** %","18.05 ± 6.08,* %",0.75 ± 0.27,1549.08 ± 539.99,"8.02 ± 3.35,*** %","131 ± 8,***","14.42 ± 3.21,*** %","58.05 ± 3.60,* %","10.75 ± 3.22,* %","9.45 ± 2.39,** %"
"N33: SEQ ID NO: 1 with deletion of positions 1-5, addition of one amino acid and PEG modification at the carboxyl terminal (LAKENVTQDAEDNC-{PEG}; reading uncertain)","19.27 ± 8.14,*** %","22.68 ± 3.02,* %",0.57 ± 0.24,1699.23 ± 709.14,"10.76 ± 4.13,*** %","178 ± 14,***","12.85 ± 3.12,*** %","33.22 ± 4.51,** %","10.03 ± 2.15,* %","18.97 ± 2.44,* %"
